Assay results: patent US20240092784A1, “CONDENSED HETEROCYCLIC COMPOUND” (NISSAN CHEMICAL CORPORATION, priority 2020, published 2024)

Target: human SPR (Homo sapiens (Human), UniProt P35270)
Experiment: Evaluation Example 2: Measurement of human SPR inhibitory activity (seven concentrations, sepiapterin absorbance at 420 nm)
Type: biochemical
Conditions: Evaluation Example 2, seven concentrations 0.14 nM to 100 nM, 240 minutes at room temperature, read-out: IC50
Method in brief: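 His-tagged full-length human SPR (1-261) was expressed in E. coli and the tag removed. Enzyme at 150 ng/mL in 100 mM Tris-HCl pH 7.5/0.01% BSA was mixed with compound (0.14–100 nM, seven points), 120 μM sepiapterin and 160 μM NADPH, both as added-solution concentrations. After 240 min at room temperature, remaining sepiapterin was read at 420 nm to give percent inhibition.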

Chain of human SPR (P35270 whole entry): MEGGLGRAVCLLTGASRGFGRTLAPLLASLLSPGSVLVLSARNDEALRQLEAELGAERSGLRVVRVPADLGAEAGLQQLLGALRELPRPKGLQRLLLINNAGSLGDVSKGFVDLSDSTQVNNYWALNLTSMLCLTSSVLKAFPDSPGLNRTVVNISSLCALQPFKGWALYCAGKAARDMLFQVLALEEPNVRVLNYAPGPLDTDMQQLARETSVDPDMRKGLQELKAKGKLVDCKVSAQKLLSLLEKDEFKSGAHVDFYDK

Cc1nn2c(O)c(C(=O)NC3CC3)c(=O)n(CC(C)(C)C)c2c1/C=C/C(=O)N1[C@@H](C)COC[C@@H]1C [Synthesis Example 624, N-Cyclopropyl-3-((E)-3-((3S,5S)-3,5-dimethylmorpholino)-3-oxoprop-1-en-1-yl)-7-hydroxy-2-methyl-4-neopentyl-5-oxo-4,5-dihydropyrazolo[1,5-a]pyrimidine-6-carboxamide]
IC50: 0.98 nM

Cc1nn2c(O)c(C(=O)NC3CC3)c(=O)n(CC(C)(C)C)c2c1/C=C/C(=O)N1CCOC[C@@H]1C [Synthesis Example 625, (S,E)-N-Cyclopropyl-7-hydroxy-2-methyl-3-(3-(3-methylmorpholino)-3-oxoprop-1-en-1-yl)-4-neopentyl-5-oxo-4,5-dihydropyrazolo[1,5-a]pyrimidine-6-carboxamide]
IC50: 1.05 nM

CCc1nn2c(O)c(C(=O)NC3CC3)c(=O)n(CC(C)C)c2c1/C=C/C(=O)N1[C@@H](C)COC[C@@H]1C [Synthesis Example 626, N-Cyclopropyl-3-((E)-3-((3S,5S)-3,5-dimethylmorpholino)-3-oxoprop-1-en-1-yl)-2-ethyl-7-hydroxy-4-isobutyl-5-oxo-4,5-dihydropyrazolo[1,5-a]pyrimidine-6-carboxamide]
IC50: 0.87 nM

Cc1nn2c(O)c(C(=O)NC3CC3)c(=O)n(CC(C)(C)C)c2c1/C=C/C(=O)N1CCC(F)(F)C1 [Synthesis Example 627, (E)-N-Cyclopropyl-3-(3-(3,3-difluoropyrrolidin-1-yl)-3-oxoprop-1-en-1-yl)-7-hydroxy-2-methyl-4-neopentyl-5-oxo-4,5-dihydropyrazolo[1,5-a]pyrimidine-6-carboxamide]
IC50: 0.94 nM

Cc1nn2c(O)c(C(=O)NC3CC3)c(=O)n(CC(C)C)c2c1/C=C/C(=O)N1C[C@H]2COC[C@H]2C1 [Synthesis Example 628, N-Cyclopropyl-7-hydroxy-4-isobutyl-2-methyl-5-oxo-3-((E)-3-oxo-3-((3aR,6aS)-tetrahydro-1H-furo[3,4-c]pyrrol-5(3H)-yl)prop-1-en-1-yl)-4,5-dihydropyrazolo[1,5-a]pyrimidine-6-carboxamide]
IC50: 0.84 nM

Cc1nn2c(O)c(C(=O)NC3CC3)c(=O)n(CC(C)C)c2c1/C=C/C(=O)N1CCC[C@@H]1C(C)C [Synthesis Example 629, (R,E)-N-Cyclopropyl-7-hydroxy-4-isobutyl-3-(3-(2-isopropylpyrrolidin-1-yl)-3-oxoprop-1-en-1-yl)-2-methyl-5-oxo-4,5-dihydropyrazolo[1,5-a]pyrimidine-6-carboxamide]
IC50: 1.14 nM

Cc1nn2c(O)c(C(=O)NC3CC3)c(=O)n(CC(C)C)c2c1/C=C/C(=O)N1CCC[C@H]1C(C)C [Synthesis Example 630, (S,E)-N-Cyclopropyl-7-hydroxy-4-isobutyl-3-(3-(2-isopropylpyrrolidin-1-yl)-3-oxoprop-1-en-1-yl)-2-methyl-5-oxo-4,5-dihydropyrazolo[1,5-a]pyrimidine-6-carboxamide]
IC50: 1.24 nM

Cc1nn2c(O)c(C(=O)NC3CC3)c(=O)n(CC(C)C)c2c1/C=C/C(=O)N1CCCC12CCOCC2 [Synthesis Example 631, (E)-N-Cyclopropyl-7-hydroxy-4-isobutyl-2-methyl-5-oxo-3-(3-oxo-3-(8-oxa-1-azaspiro[4.5]decan-1-yl)prop-1-en-1-yl)-4,5-dihydropyrazolo[1,5-a]pyrimidine-6-carboxamide]
IC50: 0.66 nM

Cc1nn2c(O)c(C(=O)NC3CC3)c(=O)n(CC(C)C)c2c1/C=C/C(=O)N1CCC[C@@H]1C(F)F [Synthesis Example 632, (R,E)-N-Cyclopropyl-3-(3-(2-(difluoromethyl)pyrrolidin-1-yl)-3-oxoprop-1-en-1-yl)-7-hydroxy-4-isobutyl-2-methyl-5-oxo-4,5-dihydropyrazolo[1,5-a]pyrimidine-6-carboxamide]
IC50: 1.51 nM

Cc1nn2c(O)c(C(=O)NC3CC3)c(=O)n(CC(C)C)c2c1/C=C/C(=O)N1CCC[C@H]1c1cccnc1 [Synthesis Example 633, (S,E)-N-Cyclopropyl-7-hydroxy-4-isobutyl-2-methyl-5-oxo-3-(3-oxo-3-(2-(pyridin-3-yl)pyrrolidin-1-yl)prop-1-en-1-yl)-4,5-dihydropyrazolo[1,5-a]pyrimidine-6-carboxamide]
IC50: 0.91 nM

Cc1nn2c(O)c(C(=O)NC3CC3)c(=O)n(CC(C)C)c2c1/C=C/C(=O)N1CCC[C@H]1C(F)F [Synthesis Example 634, (S,E)-N-Cyclopropyl-3-(3-(2-(difluoromethyl)pyrrolidin-1-yl)-3-oxoprop-1-en-1-yl)-7-hydroxy-4-isobutyl-2-methyl-5-oxo-4,5-dihydropyrazolo[1,5-a]pyrimidine-6-carboxamide]
IC50: 1.21 nM

Cc1nn2c(O)c(C(=O)NC3CC3)c(=O)n(CC(C)C)c2c1/C=C/C(=O)N1CCC[C@@H]1c1ccccn1 [Synthesis Example 635, (R,E)-N-Cyclopropyl-7-hydroxy-4-isobutyl-2-methyl-5-oxo-3-(3-oxo-3-(2-(pyridin-2-yl)pyrrolidin-1-yl)prop-1-en-1-yl)-4,5-dihydropyrazolo[1,5-a]pyrimidine-6-carboxamide]
IC50: 1.08 nM

Cc1nn2c(O)c(C(=O)NC3CC3)c(=O)n(CC(C)C)c2c1/C=C/C(=O)N(C)Cc1cnccn1 [Synthesis Example 636, (E)-N-Cyclopropyl-7-hydroxy-4-isobutyl-2-methyl-3-(3-(methyl(pyrazin-2-ylmethyl)amino)-3-oxoprop-1-en-1-yl)-5-oxo-4,5-dihydropyrazolo[1,5-a]pyrimidine-6-carboxamide]
IC50: 1.47 nM

Cc1nn2c(O)c(C(=O)NC3CC3)c(=O)n(CC(C)C)c2c1/C=C/C(=O)N(C)Cc1cccnc1 [Synthesis Example 637, (E)-N-Cyclopropyl-7-hydroxy-4-isobutyl-2-methyl-3-(3-(methyl(pyridin-3-ylmethyl)amino)-3-oxoprop-1-en-1-yl)-5-oxo-4,5-dihydropyrazolo[1,5-a]pyrimidine-6-carboxamide]
IC50: 0.89 nM

Cc1nn2c(O)c(C(=O)NC3CC3)c(=O)n(CC(C)C)c2c1/C=C/C(=O)N(C)Cc1ccccn1 [Synthesis Example 638, (E)-N-Cyclopropyl-7-hydroxy-4-isobutyl-2-methyl-3-(3-(methyl(pyridin-2-ylmethyl)amino)-3-oxoprop-1-en-1-yl)-5-oxo-4,5-dihydropyrazolo[1,5-a]pyrimidine-6-carboxamide]
IC50: 1.05 nM

Cc1nn2c(O)c(C(=O)NC3CC3)c(=O)n(CC(C)C)c2c1/C=C/C(=O)N(C)Cc1ccn(C)n1 [Synthesis Example 639, (E)-N-Cyclopropyl-7-hydroxy-4-isobutyl-2-methyl-3-(3-(methyl((1-methyl-1H-pyrazol-3-yl)methyl)amino)-3-oxoprop-1-en-1-yl)-5-oxo-4,5-dihydropyrazolo[1,5-a]pyrimidine-6-carboxamide]
IC50: 1.06 nM

CC[C@H]1CCCN1C(=O)/C=C/c1c(C)nn2c(O)c(C(=O)NC3CC3)c(=O)n(CC(C)C)c12 [Synthesis Example 640, (S,E)-N-Cyclopropyl-3-(3-(2-ethylpyrrolidin-1-yl)-3-oxoprop-1-en-1-yl)-7-hydroxy-4-isobutyl-2-methyl-5-oxo-4,5-dihydropyrazolo[1,5-a]pyrimidine-6-carboxamide]
IC50: 1.16 nM
